In ChEMBL document CHEMBL5523743, “Identification of Psychoplastogenic Tropanes Lacking Muscarinic Activity” (J Med Chem, 2024):
Activity calls are given as the source filed them. The calls are words filed in the database; no cut-off is given here.

Legend:
[1] = molecular target: T1, Muscarinic acetylcholine receptor M1 (Homo sapiens) (UniProt P11229); experiment: Antagonist activity at recombinant human M1 receptor expressed in CHO-K1 cells incubated for 15 mins in presence of acetylcholine by aequorin assay; type: functional, cell-based
T1 sequence (whole entry): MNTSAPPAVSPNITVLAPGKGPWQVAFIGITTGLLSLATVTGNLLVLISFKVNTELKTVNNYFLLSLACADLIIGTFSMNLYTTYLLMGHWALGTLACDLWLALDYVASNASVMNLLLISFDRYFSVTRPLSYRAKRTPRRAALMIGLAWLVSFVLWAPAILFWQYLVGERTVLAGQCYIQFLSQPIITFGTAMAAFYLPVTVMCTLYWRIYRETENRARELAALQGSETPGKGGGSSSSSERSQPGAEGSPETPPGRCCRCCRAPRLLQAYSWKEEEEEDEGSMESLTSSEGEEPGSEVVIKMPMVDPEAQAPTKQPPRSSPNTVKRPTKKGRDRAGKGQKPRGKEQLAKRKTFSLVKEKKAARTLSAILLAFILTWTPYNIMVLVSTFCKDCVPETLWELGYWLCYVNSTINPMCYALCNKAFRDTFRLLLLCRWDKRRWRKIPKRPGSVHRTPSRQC

Neuron [2] = experiment: Neuroplasticity effect in Wistar rat brain cortical neuron assessed as increase in neurite outgrowth at 0.25 to 10 uM after 72 hrs; type: functional, cell-based; conditions: dose 0.25-10 µM
[3] = molecular target: T2, 5-hydroxytryptamine receptor 2C (Homo sapiens) (UniProt P28335); experiment: Agonist activity at recombinant human 5HT2CR expressed in CHO-K1 cells incubated for 60 mins by HTRF method; type: functional, cell-based
T2 sequence (whole entry): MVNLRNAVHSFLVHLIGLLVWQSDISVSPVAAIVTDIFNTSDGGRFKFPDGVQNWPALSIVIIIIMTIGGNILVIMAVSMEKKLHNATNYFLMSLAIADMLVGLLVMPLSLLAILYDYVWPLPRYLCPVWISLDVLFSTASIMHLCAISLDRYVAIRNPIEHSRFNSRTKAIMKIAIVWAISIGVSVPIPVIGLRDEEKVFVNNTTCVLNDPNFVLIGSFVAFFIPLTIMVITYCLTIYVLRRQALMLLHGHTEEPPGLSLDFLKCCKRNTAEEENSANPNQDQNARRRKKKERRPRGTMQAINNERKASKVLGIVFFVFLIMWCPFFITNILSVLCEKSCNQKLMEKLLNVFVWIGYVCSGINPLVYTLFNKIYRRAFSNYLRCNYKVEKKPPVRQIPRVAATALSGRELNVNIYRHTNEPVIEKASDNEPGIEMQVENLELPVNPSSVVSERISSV

[4] = molecular target: Muscarinic acetylcholine receptor M3 (Homo sapiens) (UniProt P20309); experiment: Antagonist activity at recombinant human M3 receptor expressed in CHO-K1 cells incubated for 15 mins in presence of acetylcholine by aequorin assay; type: functional, cell-based
Muscarinic acetylcholine receptor M3 (Homo sapiens), sequence (P20309 whole entry, looked up): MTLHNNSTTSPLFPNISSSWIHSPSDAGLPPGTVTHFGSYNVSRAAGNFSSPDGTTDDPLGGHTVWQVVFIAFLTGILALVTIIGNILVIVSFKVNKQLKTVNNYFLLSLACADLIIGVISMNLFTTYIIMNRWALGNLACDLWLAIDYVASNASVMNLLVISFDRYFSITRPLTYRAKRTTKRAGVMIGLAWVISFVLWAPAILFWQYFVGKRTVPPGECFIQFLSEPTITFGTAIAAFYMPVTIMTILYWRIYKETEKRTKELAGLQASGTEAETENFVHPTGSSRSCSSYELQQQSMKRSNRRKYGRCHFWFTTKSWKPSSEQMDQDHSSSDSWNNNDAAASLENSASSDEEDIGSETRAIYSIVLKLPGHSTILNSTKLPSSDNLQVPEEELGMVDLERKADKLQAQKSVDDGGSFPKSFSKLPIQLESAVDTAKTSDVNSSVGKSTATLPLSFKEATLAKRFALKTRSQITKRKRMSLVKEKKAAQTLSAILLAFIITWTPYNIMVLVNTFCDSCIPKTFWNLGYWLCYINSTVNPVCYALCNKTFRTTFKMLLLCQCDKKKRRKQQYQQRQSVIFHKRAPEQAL

[5] = molecular target: T3, Muscarinic acetylcholine receptor M2 (Homo sapiens) (UniProt P08172); experiment: Agonist activity at M2 receptor (unknown origin) by GTPgamma[35S] based Topcount scintillation counting method; type: functional
T3 sequence (whole entry): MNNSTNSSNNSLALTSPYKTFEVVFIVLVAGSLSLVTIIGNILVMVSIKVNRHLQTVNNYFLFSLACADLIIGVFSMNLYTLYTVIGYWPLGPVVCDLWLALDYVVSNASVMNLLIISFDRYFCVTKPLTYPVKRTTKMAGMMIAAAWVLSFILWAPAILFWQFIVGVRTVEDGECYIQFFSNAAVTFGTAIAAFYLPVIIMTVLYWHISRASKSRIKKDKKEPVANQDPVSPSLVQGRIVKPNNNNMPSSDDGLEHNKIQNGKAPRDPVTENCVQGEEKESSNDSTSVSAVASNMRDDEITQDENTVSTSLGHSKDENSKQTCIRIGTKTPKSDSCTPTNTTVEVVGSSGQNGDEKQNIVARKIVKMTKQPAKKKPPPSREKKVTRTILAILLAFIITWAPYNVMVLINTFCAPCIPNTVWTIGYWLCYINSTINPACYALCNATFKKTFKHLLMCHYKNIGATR

[6] = molecular target: T4, Muscarinic acetylcholine receptor M4 (Homo sapiens) (UniProt P08173); experiment: Antagonist activity at M4 receptor (unknown origin) incubated for 1 hr in presence of oxotremorine by GTPgamma[35S] based Topcount scintillation counting method; type: functional
T4 sequence (whole entry): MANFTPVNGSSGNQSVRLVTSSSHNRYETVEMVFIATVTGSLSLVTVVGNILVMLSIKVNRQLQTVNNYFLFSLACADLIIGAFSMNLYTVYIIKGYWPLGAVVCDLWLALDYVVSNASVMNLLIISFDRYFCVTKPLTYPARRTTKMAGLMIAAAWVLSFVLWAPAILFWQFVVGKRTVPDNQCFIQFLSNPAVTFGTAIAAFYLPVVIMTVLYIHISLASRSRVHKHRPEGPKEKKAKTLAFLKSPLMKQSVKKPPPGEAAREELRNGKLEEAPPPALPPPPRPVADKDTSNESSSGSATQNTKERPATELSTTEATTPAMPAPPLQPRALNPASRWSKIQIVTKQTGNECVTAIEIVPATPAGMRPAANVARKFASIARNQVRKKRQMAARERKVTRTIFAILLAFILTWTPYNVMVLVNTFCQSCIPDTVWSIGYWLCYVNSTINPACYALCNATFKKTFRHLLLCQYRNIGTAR

[7] = molecular target: Muscarinic acetylcholine receptor M3 (Homo sapiens) (UniProt P20309); experiment: Displacement of [3H]-Scopolamine from M3 receptor (unknown origin) by Topcount scintillation counting method
[8] = molecular target: 5-hydroxytryptamine receptor 2A (Homo sapiens) (UniProt P28223); experiment: Displacement of [3H]-DOI from 5HT2AR (unknown origin) by Topcount scintillation counting method
5-hydroxytryptamine receptor 2A (Homo sapiens), sequence (P28223 whole entry): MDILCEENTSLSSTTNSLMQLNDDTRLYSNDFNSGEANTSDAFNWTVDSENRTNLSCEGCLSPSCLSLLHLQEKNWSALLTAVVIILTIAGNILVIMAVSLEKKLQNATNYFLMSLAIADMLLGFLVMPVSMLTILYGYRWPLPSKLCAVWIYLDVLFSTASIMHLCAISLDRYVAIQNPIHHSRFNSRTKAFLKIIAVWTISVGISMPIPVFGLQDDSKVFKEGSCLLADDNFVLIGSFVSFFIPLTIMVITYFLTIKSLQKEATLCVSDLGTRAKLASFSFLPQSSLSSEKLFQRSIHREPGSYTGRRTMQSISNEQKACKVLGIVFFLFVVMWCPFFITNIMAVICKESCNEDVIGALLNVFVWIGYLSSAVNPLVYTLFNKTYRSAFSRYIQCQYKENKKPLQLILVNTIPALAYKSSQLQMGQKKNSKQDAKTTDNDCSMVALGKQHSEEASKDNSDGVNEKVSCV

[9] = molecular target: T2, 5-hydroxytryptamine receptor 2C (Homo sapiens); experiment: Displacement of [3H]-DOI from 5HT2CR (unknown origin) by Topcount scintillation counting method
[10] = molecular target: T4, Muscarinic acetylcholine receptor M4 (Homo sapiens); experiment: Displacement of [3H]-Scopolamine from M4 receptor (unknown origin) by Topcount scintillation counting method
[11] = molecular target: T2, 5-hydroxytryptamine receptor 2C (Homo sapiens); experiment: Antagonist activity at recombinant human 5HT2CR expressed in CHO-K1 cells incubated for 60 mins in presence of alpha-Me-5HT by HTRF method; type: functional, cell-based
[12] = molecular target: T4, Muscarinic acetylcholine receptor M4 (Homo sapiens); experiment: Agonist activity at M4 receptor (unknown origin) by GTPgamma[35S] based Topcount scintillation counting method; type: functional
[13] = molecular target: T3, Muscarinic acetylcholine receptor M2 (Homo sapiens); experiment: Displacement of [3H]-Scopolamine from M2 receptor (unknown origin) by Topcount scintillation counting method
[14] = molecular target: T1, Muscarinic acetylcholine receptor M1 (Homo sapiens); experiment: Agonist activity at recombinant human M1 receptor expressed in CHO-K1 cells incubated for 15 mins by aequorin assay; type: functional, cell-based
[15] = molecular target: T1, Muscarinic acetylcholine receptor M1 (Homo sapiens); experiment: Displacement of [3H]-Scopolamine from M1 receptor (unknown origin) by Topcount scintillation counting method
[16] = molecular target: T5, Muscarinic acetylcholine receptor M5 (Homo sapiens) (UniProt P08912); experiment: Agonist activity at recombinant human M5 receptor expressed in CHO-K1 cells incubated for 15 mins by aequorin assay; type: functional, cell-based
T5 sequence (whole entry): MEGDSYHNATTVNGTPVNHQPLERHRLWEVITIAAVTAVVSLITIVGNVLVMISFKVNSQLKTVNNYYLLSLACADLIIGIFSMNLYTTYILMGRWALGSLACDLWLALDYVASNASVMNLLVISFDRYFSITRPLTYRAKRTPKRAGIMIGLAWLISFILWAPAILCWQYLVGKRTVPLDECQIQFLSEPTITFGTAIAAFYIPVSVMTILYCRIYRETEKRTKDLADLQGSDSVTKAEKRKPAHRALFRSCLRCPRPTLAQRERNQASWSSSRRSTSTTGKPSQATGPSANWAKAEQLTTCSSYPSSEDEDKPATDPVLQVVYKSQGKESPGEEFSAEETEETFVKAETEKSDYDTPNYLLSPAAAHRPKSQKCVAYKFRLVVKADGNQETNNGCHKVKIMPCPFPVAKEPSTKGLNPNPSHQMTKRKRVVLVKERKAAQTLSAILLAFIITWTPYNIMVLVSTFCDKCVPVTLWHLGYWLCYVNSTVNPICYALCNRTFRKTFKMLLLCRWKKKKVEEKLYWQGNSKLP

[17] = molecular target: T3, Muscarinic acetylcholine receptor M2 (Homo sapiens); experiment: Antagonist activity at M2 receptor (unknown origin) incubated for 1 hr in presence of acetylcholine by GTPgamma[35S] based Topcount scintillation counting method; type: functional
[18] = molecular target: Muscarinic acetylcholine receptor M3 (Homo sapiens) (UniProt P20309); experiment: Agonist activity at recombinant human M3 receptor expressed in CHO-K1 cells incubated for 15 mins by aequorin assay; type: functional, cell-based
[19] = molecular target: 5-hydroxytryptamine receptor 2A (Homo sapiens) (UniProt P28223); experiment: Antagonist activity at recombinant human 5HT2AR expressed in CHO-K1 cells incubated for 60 mins in presence of alpha-Me-5HT by HTRF method; type: functional, cell-based
[20] = molecular target: 5-hydroxytryptamine receptor 2A (Homo sapiens) (UniProt P28223); experiment: Agonist activity at recombinant human 5HT2AR expressed in CHO-K1 cells incubated for 60 mins by HTRF method; type: functional, cell-based
[21] = molecular target: T5, Muscarinic acetylcholine receptor M5 (Homo sapiens); experiment: Displacement of [3H]-Scopolamine from M5 receptor (unknown origin) by Topcount scintillation counting method
[22] = molecular target: T5, Muscarinic acetylcholine receptor M5 (Homo sapiens); experiment: Antagonist activity at recombinant human M5 receptor expressed in CHO-K1 cells incubated for 15 mins in presence of acetylcholine by aequorin assay; type: functional, cell-based
Neuron [23] = experiment: Neuroplasticity effect in Wistar rat brain cortical neuron assessed as increase in neurite outgrowth after 72 hrs; type: functional, cell-based; conditions: dose 0.25-10 µM
Neuron [24] = experiment: Cytotoxicity against Wistar rat brain cortical neurons assessed as decrease in average number of neurites per neuron at 0.25 to 10 uM; type: toxicity, cell-based; conditions: dose 0.25-10 µM

CN1[C@H]2C[C@@H](OC(=O)c3ccccc3)C[C@@H]1[C@@H](c1ccccc1)C2
Activity ([1]; filed as antagonist): Active | Activity (Neuron [2]): Active

Fc1ccc(CCN2[C@@H]3CCC[C@H]2CC3)cc1
Activity (Neuron [2]): Active

O=C1C[C@H]2C[C@H](O)[C@@H](C1)N2CCc1c[nH]c2ccccc12
Activity (Neuron [2]): Active

COc1ccc(CN2[C@H]3CC(=O)C[C@@H]2[C@@H](O)C3)cc1
Activity [3]: inactive | Activity [4]: inactive | Activity [5]: inactive | Activity [6]: inactive | Activity [1]: inactive | Activity [7]: inactive | Activity [8]: inactive | Activity [9]: inactive | Activity [10]: inactive | Activity [11]: inactive | Activity [12]: inactive | Activity (Neuron [2]): Active | Activity [13]: inactive | Activity [14]: inactive | Activity [15]: inactive | Activity [16]: inactive | Activity [17]: inactive | Activity [18]: inactive | Activity [19]: inactive | Activity [20]: inactive | Activity [21]: inactive | Activity [22]: inactive

COc1ccc2[nH]c3c(c2c1)[C@H]1CC[C@@H](C3)N1C
Activity (Neuron [2]): inactive

CN1[C@@H]2CCC[C@H]1[C@H]1[C@@H]2N1c1ccc2[nH]ccc2c1
Activity (Neuron [2]): inactive

CN1[C@@H]2CC[C@H]1C[C@H](OC(=O)/C=C/c1ccccc1)C2
Activity (Neuron [23]): Dose-Dependent Effect

COc1ccccc1[C@H]1C[C@@H]2CCC[C@H]1N2C
Activity (Neuron [2]): inactive

COc1ccc(CCN2[C@@H]3CCC[C@H]2CC3)cc1
Activity (Neuron [2]): inactive | Activity (Neuron [24]): Toxic

COc1cccc([C@H]2C[C@@H]3CCC[C@H]2N3C)c1
Activity ([1]; filed as antagonist): Active | Activity (Neuron [2]): Active

CN1[C@H]2CCC[C@@H]1[C@@H](c1ccc(F)cc1)C2
Activity (Neuron [2]): inactive

COc1ccc([C@H]2C[C@@H]3CCC[C@H]2N3C)cc1
Activity (Neuron [2]): inactive | Activity (Neuron [24]): Toxic

CN1[C@H]2CCC[C@@H]1[C@@H](c1ccccc1F)C2
Activity (Neuron [2]): inactive | Activity (Neuron [24]): Toxic

CN1[C@H]2CCC[C@@H]1[C@@H](c1cccc(F)c1)C2
Activity ([1]; filed as antagonist): Active | Activity (Neuron [2]): Active

CN1[C@@H]2CC[C@H]1C[C@H](OC(=O)c1ccccc1)C2
Activity (Neuron [2]): inactive

c1ccc(CCN2[C@@H]3CCC[C@H]2CC3)cc1
Activity (Neuron [2]): Active

CN1[C@H]2C[C@@H](O)C[C@@H]1[C@@H](c1ccccc1)C2
Activity (Neuron [2]): inactive

CN1[C@@H]2CCC[C@H]1[C@H]1[C@@H]2N1c1ccccc1
Activity (Neuron [2]): inactive

Fc1ccccc1CCN1[C@@H]2CCC[C@H]1CC2
Activity (Neuron [2]): Active

COc1cccc(CCN2[C@@H]3CCC[C@H]2CC3)c1
Activity (Neuron [2]): Active

COc1ccccc1CCN1[C@@H]2CCC[C@H]1CC2
Activity ([3]; filed as agonist): Active | Activity ([5]; filed as agonist): Active | Activity ([8]; filed as agonist): Active | Activity ([9]; filed as agonist): Active | Activity ([12]; filed as agonist): Active | Activity ([14]; filed as agonist): Active | Activity ([16]; filed as agonist): Active | Activity ([18]; filed as agonist): Active | Activity ([20]; filed as agonist): Active

CN1[C@H]2CC[C@@H]1C=C(c1c[nH]c3ccccc13)C2
Activity ([11]; filed as antagonist): Active | Activity (Neuron [2]): inactive

CN1[C@H]2C[C@H](OC(=O)c3ccccc3)C[C@@H]1[C@@H](c1ccccc1)C2
Activity ([1]; filed as antagonist): Active | Activity (Neuron [2]): inactive

CN1[C@H]2CCC[C@@H]1[C@@H](c1ccccc1)C2
Activity (Neuron [2]): inactive

CN1[C@H]2C[C@H](O)C[C@@H]1[C@@H](c1ccccc1)C2
Activity (Neuron [2]): inactive

CN1[C@@H]2CCC[C@H]1[C@H]1[C@@H]2N1c1cccnc1
Activity (Neuron [2]): inactive
